We go through 28 compounds from patent US9382254B2, “Compounds and pharmaceutical compositions thereof for the treatment of cystic fibrosis” (Galapagos NV, priority 2013, dated 2016).

What is called EC50 is the midpoint of the concentration-response curve.

T1 sequence (P13569 with tags, fused parts or gaps DEL508-508): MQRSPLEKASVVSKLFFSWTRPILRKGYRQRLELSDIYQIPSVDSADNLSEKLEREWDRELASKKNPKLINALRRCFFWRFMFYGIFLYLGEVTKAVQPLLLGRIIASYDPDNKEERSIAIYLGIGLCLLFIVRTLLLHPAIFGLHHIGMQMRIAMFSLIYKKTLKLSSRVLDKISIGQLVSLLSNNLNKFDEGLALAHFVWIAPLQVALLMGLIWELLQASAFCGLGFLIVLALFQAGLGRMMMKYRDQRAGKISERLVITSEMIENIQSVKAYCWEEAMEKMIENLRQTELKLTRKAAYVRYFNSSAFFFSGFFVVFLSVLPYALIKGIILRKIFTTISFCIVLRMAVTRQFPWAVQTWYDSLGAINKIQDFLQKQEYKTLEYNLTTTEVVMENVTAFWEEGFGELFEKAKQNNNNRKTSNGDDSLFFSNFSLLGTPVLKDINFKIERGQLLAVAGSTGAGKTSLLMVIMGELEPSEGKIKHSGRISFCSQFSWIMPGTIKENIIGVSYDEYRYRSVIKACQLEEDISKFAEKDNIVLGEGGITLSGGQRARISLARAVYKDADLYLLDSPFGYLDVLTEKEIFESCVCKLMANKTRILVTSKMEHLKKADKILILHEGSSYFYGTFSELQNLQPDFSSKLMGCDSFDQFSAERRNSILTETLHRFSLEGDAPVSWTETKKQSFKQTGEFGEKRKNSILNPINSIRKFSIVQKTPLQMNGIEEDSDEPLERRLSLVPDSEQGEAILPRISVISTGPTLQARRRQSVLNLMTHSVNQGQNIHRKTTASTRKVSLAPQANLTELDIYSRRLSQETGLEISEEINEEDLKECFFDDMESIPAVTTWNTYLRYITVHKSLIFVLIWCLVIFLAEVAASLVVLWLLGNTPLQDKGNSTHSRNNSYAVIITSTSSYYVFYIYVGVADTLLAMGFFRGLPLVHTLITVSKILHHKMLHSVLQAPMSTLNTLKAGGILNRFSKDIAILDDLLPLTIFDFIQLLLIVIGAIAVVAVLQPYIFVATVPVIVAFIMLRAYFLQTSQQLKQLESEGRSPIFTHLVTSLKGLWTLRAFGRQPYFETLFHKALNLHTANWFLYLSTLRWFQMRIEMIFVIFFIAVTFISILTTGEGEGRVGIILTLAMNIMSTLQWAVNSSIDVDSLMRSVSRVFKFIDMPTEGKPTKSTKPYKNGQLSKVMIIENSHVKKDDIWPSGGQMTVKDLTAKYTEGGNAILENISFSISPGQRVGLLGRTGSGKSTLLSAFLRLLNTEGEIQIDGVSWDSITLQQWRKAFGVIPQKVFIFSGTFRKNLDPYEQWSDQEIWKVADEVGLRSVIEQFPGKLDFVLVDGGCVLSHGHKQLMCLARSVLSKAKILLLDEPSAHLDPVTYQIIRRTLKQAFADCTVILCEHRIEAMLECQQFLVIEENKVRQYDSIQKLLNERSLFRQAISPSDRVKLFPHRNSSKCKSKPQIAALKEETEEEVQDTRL

The assay addresses T1, CFTR ΔF508 mutant (Homo sapiens, UniProt P13569, DEL508-508).
T1 construct: expressed in transfected cells; host or cells: CFBE41o- (adenoviral transduction)
The assay can be described thus: YFP-halide influx assay for the CFTR-ΔF508 mutation, gluconate buffer. The assay is classed as cell-based. Particulars: CFBE41o- cells, forskolin 10.67 μM. A digest of the protocol:
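CFBE41o- cells adenovirally transduced with CFTR ΔF508 and YFP H148Q/I152L, then held 24 h at 27 °C or treated with CFTR modulator 24 h at 37 °C. I− quenching recorded for 7 s after injection; activity as 1-F/F0, EC50 from concentration plot.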
Compound `NC(=O)c1cc(S(=O)(=O)N2CCCC2)sc1NC(=O)c1cc2ccccc2s1` [Compound 55, N-(3-carbamoyl-5-(pyrrolidini-1-ylsulfonyl)thiophen-2-yl)benzo[b] thiophene-2-carboxamide] registered a 50% effective concentration (EC50) of 3330 nM. In other words, the single-digit micromolar range.

Regarding `CCc1cc(C(=O)Nc2sc(S(=O)(=O)c3ccc(F)cc3)cc2C(N)=O)n[nH]1` [Compound 110, N-(3-carbamoyl-5-(4-fluorophenylsulfonyl)thiophen-2-yl)-5-ethyl-1H-pyrazole-3-carboxamide], the response was half-maximal at 144 nM (EC50). Against the preceding compound, the EC50 is about 23-fold lower.

On to `NC(=O)c1cc(S(=O)(=O)N2CC3(COC3)C2)sc1NC(=O)c1ccccc1F` [Compound 188, 5-(2-oxa-6-azaspiro[3.3]heptan-6-ylsulfonyl)-2-(2-fluorobenzamido) thiophene-3-carboxamide], for which the EC50 was 2100 nM. This EC50 is about 15-fold higher than that of the compound before.

In the case of `NC(=O)c1cc(S(=O)(=O)N2CCOCC2)sc1NC(=O)c1cccc(C2CC2)c1` [Compound 134, 2-(3-cyclopropylbenzamido)-5-(morpholinosulfonyl) thiophene-3-carboxamide], the EC50 amounted to 946 nM.

As for `COc1ccccc1C(=O)Nc1sc(S(=O)(=O)N2CCCCC2)cc1C(N)=O` [Compound 24, 2-(2-methoxybenzamido)-5-(piperidin-1-ylsulfonyl)thiophene-3-carboxamide], it took 772 nM to reach a half-maximal effect (EC50).

`Cc1ccc(C(=O)Nc2sc(S(=O)(=O)Cc3ccccc3)cc2C(N)=O)s1` [Compound 82, N-(5-(benzylsulfonyl)-3-carbamoylthiophen-2-yl)-5-methylthiophene-2-carboxamide]: a half-maximal response (EC50) required 468 nM.

`NC(=O)c1cc(S(=O)(=O)N2CCCCC2)sc1NC(=O)c1ccccc1F` [Compound 19, 2-(2-fluorobenzamido)-5-(piperidin-1-ylsulfonyl)thiophene-3-carboxamide] came in with an EC50 of 118 nM.

In turn, `CN(CC#N)S(=O)(=O)c1cc(C(N)=O)c(NC(=O)c2ccccc2F)s1` [Compound 125, 5-(N-(cyanomethyl)-N-methylsulfamoyl)-2-(2-fluorobenzamido) thiophene-3-carboxamide] displayed an EC50 of 580 nM. This EC50 is about 4.9-fold higher than that of the compound before.

`NC(=O)c1cc(S(=O)(=O)c2ccccc2)sc1NC(=O)c1ccccc1F` [Compound 100, 2-(2-fluorobenzamido)-5-(phenylsulfonyl) thiophene-3-carboxamide]: a half-maximal effect (EC50) was put at 121 nM.

For `NC(=O)c1cc(S(=O)(=O)N2CCCCC2)sc1NC(=O)c1cc2ccccc2s1` [Compound 10, N-(3-carbamoyl-5-(piperidin-1-ylsulfonyl)thiophen-2-yl)benzo[b] thiophene-2-carboxamide], a half-maximal effect (EC50) was put at 628 nM.

`Cc1nnc(C(=O)Nc2sc(S(=O)(=O)N3CCCCC3)cc2C(N)=O)o1` [Compound 33, N-(3-carbamoyl-5-(piperidin-1-ylsulfonyl)thiophen-2-yl)-5-methyl-1,3,4-oxadiazole-2-carboxamide] displayed an EC50 of 9840 nM.

`NC(=O)c1cc(S(=O)(=O)N2CCOCC2)sc1NC(=O)c1ncco1` [Compound 98, N-(3-carbamoyl-5-(morpholinosulfonyl)thiophen-2-yl)oxazole-2-carboxamide]: the EC50 is above 1000 nM.

As for `N#CC1CN(S(=O)(=O)c2cc(C(N)=O)c(NC(=O)c3ccccc3F)s2)C1` [Compound 176, 5-(3-cyanoazetidin-1-ylsulfonyl)-2-(2-fluorobenzamido)thiophene-3-carboxamide], the 50% effective concentration (EC50) is 1460 nM.

Consider `NC(=O)c1cc(S(=O)(=O)N2CCCCC2)sc1NC(=O)c1ccc(-c2cccnc2)s1` [Compound 64, N-(3-carbamoyl-5-(piperidin-1-ylsulfonyl)thiophen-2-yl)-5-(pyridin-3-yl)thiphene-2-carboxamide], for which the half-maximal effective concentration (EC50) worked out at 2160 nM.

`NC(=O)c1cc(S(=O)(=O)N2CCOCC2)sc1NC(=O)c1cc[nH]n1` [Compound 63, N-(3-carbamoyl-5-(morpholinosulfonyl)thiophen-2-yl)-1H-pyrazole-3-carboxamide]: a half-maximal effect (EC50) was put at 251 nM.

For `CC(C)(C)C(=O)Nc1sc(S(=O)(=O)N2CCOCC2)cc1C(N)=O` [Compound 47, 5-(morpholinosulfonyl)-2-pivalamidothiophene-3-carboxamide], the EC50 came to 2660 nM.

`Cc1ccc(CN(C)S(=O)(=O)c2cc(C(N)=O)c(NC(=O)c3ccccc3F)s2)cc1` [Compound 124, 2-(2-fluorobenzamido)-5-(N-methyl-N-(4-methylbenzyl)sulfamoyl) thiophene-3-carboxamide] displayed a half-maximal effective concentration (EC50) of 503 nM.

Regarding `COc1ccccc1C(=O)Nc1sc(S(=O)(=O)N2CCOCC2)cc1C(N)=O` [Compound 48, 2-(2-methoxybenzomido)-5-(morpholinosulfonyl) thiophene-3-carboxamide], a half-maximal effect (EC50) was put at 253 nM.

For the compound `COc1cc(Nc2ccccc2)ccc1C(=O)Nc1sc(S(=O)(=O)N2CCOCC2)cc1C(N)=O` [Compound 70, 2-(2-methoxy-4-(phenylamino)benzamido)-5-(morpholinosulfonyl) thiophene-3-carboxamide], the concentration giving a half-maximal response (EC50) turned out to be 921 nM.

`NC(=O)c1cc(S(=O)(=O)N2CCCCC2)sc1NC(=O)c1cnn2ccccc12` [Compound 60, N-(3-carbamoyl-5-(piperidin-1-ylsulfonyl)thiophen-2-yl)pyrazolo[1,5-a]pyridine-3-carboxamide] gave a 50% effective concentration (EC50) of 1900 nM.

For the compound `NC(=O)c1cc(S(=O)(=O)N2CCCCC2)sc1NC(=O)c1ccc(F)s1` [Compound 39, N-(3-carbamoyl-5-(piperidin-1-ylsulfonyl)thiophen-2-yl)-5-fluorothiophene-2-carboxamide], the midpoint of the response, the EC50, lay at 293 nM.

Compound `NC(=O)c1cc(S(=O)(=O)N2CCCCC2)sc1NC(=O)c1cscn1` [Compound 59, N-(3-carbamoyl-5-(piperidin-1-ylsulfonyl)thiophen-2-yl)thiazole-4-carboxamide] registered an EC50 of 182 nM.

On to `CC(C)(C)c1ccc(C(=O)Nc2sc(S(=O)(=O)N3CCCCC3)cc2C(N)=O)cc1` [Compound 27, 2-(4-tert-butylbenzamido)-5-(piperidin-1-ylsulfonyl)thiophene-3-carboxamide], for which the EC50 came to 290 nM.

The compound `NC(=O)c1cc(S(=O)(=O)N2CCCCC2)sc1NC(=O)C1(c2ccccc2)CC1` [Compound 57, 2-(1-phenylcyclopropanecarboxamido)-5-(piperidin-1-ylsulfonyl) thiophene-3-carboxamide] registered an EC50 of 2490 nM.

On to `NC(=O)c1cc(S(=O)(=O)N2CCCCC2)sc1NC(=O)Cc1ccc(F)cc1` [Compound 32, 2-(2-(4-fluorophenyl)acetamido)-5-(piperidin-1-ylsulfonyl)thiophene-3-carboxamide], for which the EC50 stood at 1500 nM.

`COc1ccc(CN(C)S(=O)(=O)c2cc(C(N)=O)c(NC(=O)c3ccccc3F)s2)cc1` [Compound 147, 2-(2-fluorobenzamido)-5-(N-(4-methoxybenzyl)-N-methylsulfamoyl)thiophene-3-carboxamide] displayed an EC50 of 242 nM. This EC50 lies about 6.2-fold lower than the previous one.

In turn, `NC(=O)c1cc(S(=O)(=O)N2CCCCC2)sc1NC(=O)c1ccccc1Cl` [Compound 17, 2-(2-chlorobenzamido)-5-(piperidin-1-ylsulfonyl)thiophene-3-carboxamide] yielded an EC50 of 265 nM.

In turn, `CC1(C(=O)Nc2sc(S(=O)(=O)N3CCOCC3)cc2C(N)=O)CC1` [Compound 45, 2-(1-methylcyclopropanecarboxamido)-5-(morpholinosulfonyl) thiophene-3-carboxamide] gave an EC50 of 1280 nM.
